Measured values taken from patent US7625945B2, “Andrographolide and analogues as inhibitors of TNFα and IL-1β expression” (Hutchison MediPharma Enterprises Ltd., priority 2004, dated 2009).

System: DNBS-induced colitis
Assay: In vivo assay: DNBS-induced distal colitis in rats
Parameters: species or system Male Wistar rats
Settings: DNBS-treated rats, 10 mg/kg i.p.
Procedure: Male Wistar rats (170-190 g, provided by Chinese academy of science animal center, Shanghai) were housed (7˜8 rats per cage) in a controlled environment and fed with standard rodent chow and water. Distal colitis was induced to the rats according to the procedure described in Hogaboam C. M., European Journal of Pharmacology, 1996, 309: 261-269. Briefly, the rats were anaesthetized with 1% pentobarbital sodium. 2,4-Dinitrobenzene sulfonic acid (DNBS) in 0.25 ml of 30% ethanol (v/v) was introduced into the colon (8 cm proximal to the anus) via a PE 50 cannula. In the control group (blank-control), 30% ethanol (v/v), in stead of DNBS in ethanol, was introduced. Andrographolide (10 mg/kg, i.p.) was administered to a group of DNBS-treated rats 24 hours and 2 hours prior to the colitis induction and once daily thereafter for 5 days. The rats were weighed daily. All rats were sacrificed 6 days after the colitis induction, and colon, spleen, and thymus were removed and weighed. The colon weight/body weight ratio, spleen weight/body weight ratio, and thymus weight/body weight ratio were calculated. Samples of colon tissues located precisely 2 cm above the anal canal were obtained, fixed in 10% neutral-buffered formalin, embedded in paraffin, sectioned, and stained with hematoxylin/eosin. The samples were examined under microscope to determine severity of the lesions.

**Q.** What does the source list for `C=C1CC[C@@H]2[C@](C)(CO)[C@H](O)CC[C@@]2(C)[C@@H]1C/C=C1/C(=O)OC[C@H]1O` [andrographolide]?
**A.** overall effect on DNBS-induced colitis: effectively alleviated or even cured; microscopic examination of colon: severity of inflammation (colon sections hematoxylin/eosin, 6 days after induction): much less severe inflammation; colon weight/body weight ratio (treatment for 6 days): decreased; wasting syndrome (weight loss, diarrhea) (treatment for 6 days): alleviated wasting syndrome
